Assay results reported in patent US20250195553A1, “Use of Genipin-1-B-D-Gentiobioside in Preparation of Drug” (Guizhou Bailing Group Pharmaceutical Co., Ltd., priority 2023, published 2025).

What was measured:
[1] = tested on: Mycoplasma Pneumoniae (MP); test: Mycoplasma pneumoniae-infected mouse pneumonia model: lung index; assay type: in vivo, BALB/C mice; design: First Batch Inhibition Rate: unit not given here; conditions: 4 days
Human Coronavirus 229E = test: Cytokines in lung tissue of mice infected with human coronavirus 229E (ELISA); assay type: in vivo; conditions: 4 days
Method: Seventy Institute of Cancer Research Mouse (ICR) mice were randomly divided into seven groups based on body weight: a normal control group, a model control group, a chloroquine phosphate control group, and four Genipin-1-β-D-gentiobioside dosage groups (75 mg/ml, 37.5 mg/ml, 18.75 mg/ml, and 9.375 mg/ml), with ten mice in each group. Except for the normal control group, the other mice were lightly anesthetized with isoflurane and infected intranasally with 50 μl of 100 TCID50 coronavirus strain 229E or OC43. The infection was repeated every other day. Nebulization administration began on the same day as the first infection, with a flow rate of 7.5 L/min. The four Genipin-1-β-D-gentiobioside dosage groups were nebulized for 25 minutes each. The chloroquine phosphate control group was administered 0.2 ml/10 g body weight by gavage once daily for four consecutive days. The normal control group and the model control group were nebulized with distilled water for 25 minutes under the same conditions. On the fifth day, the mice were dissected, and the following indicators were measured:
(2) The left lung lobes were used for viral nucleic acid detection, while the right lung lobes were used for the quantification of inflammatory factors: IL-6, IL-10, and TNF-α.
The inhalation administration samples mentioned above were used. The weight of the lung tissue was measured, and an appropriate amount of physiological saline was added to make a 10% tissue homogenate. After homogenizing the tissue using a high-throughput tissue grinder, it was centrifuged at 4° C. and 3000 rpm for 10 minutes using a low-temperature high-speed centrifuge. The supernatant was then aspirated, aliquotted, and stored at −80° C. for future use, avoiding repeated freeze-thaw cycles. For detection, the absorbance at 450 nm was measured using a microplate reader according to the kit instructions.

COC(=O)C1=CO[C@@H](O[C@@H]2O[C@H](CO[C@@H]3O[C@H](CO)[C@@H](O)[C@H](O)[C@H]3O)[C@@H](O)[C@H](O)[C@H]2O)[C@@H]2C(CO)=CC[C@H]12 [Genipin-1-β-D-gentiobioside]
First Batch Inhibition Rate ([1]; 37.5 mg/ml inhalation 15 min): 73.01
First Batch Lung Index ([1]; 37.5 mg/ml inhalation 15 min): 0.76 ± 0.09
Second Batch Inhibition Rate ([1]; 37.5 mg/ml inhalation 15 min): 56.34
Second Batch Lung Index ([1]; 37.5 mg/ml inhalation 15 min): 0.68 ± 0.08
First Batch Inhibition Rate ([1]; 75 mg/ml inhalation 15 min): 93.06
First Batch Lung Index ([1]; 75 mg/ml inhalation 15 min): 0.72 ± 0.05
Second Batch Inhibition Rate ([1]; 75 mg/ml inhalation 15 min): 64.09
Second Batch Lung Index ([1]; 75 mg/ml inhalation 15 min): 0.67 ± 0.07
Cytokine Levels in Lung Tissue IL-6 (Human Coronavirus 229E; 9.375 mg/ml inhalation): 98.70 ± 4.56 pg/mL
Cytokine Levels in Lung Tissue IL-10 (Human Coronavirus 229E; 9.375 mg/ml inhalation): 331.34 ± 28.00 pg/mL
Cytokine Levels in Lung Tissue TNF-α (Human Coronavirus 229E; 9.375 mg/ml inhalation): 511.16 ± 80.14 pg/mL
Cytokine Levels in Lung Tissue IL-6 (Human Coronavirus 229E; 18.75 mg/ml inhalation): 99.51 ± 5.24 pg/mL
Cytokine Levels in Lung Tissue IL-10 (Human Coronavirus 229E; 18.75 mg/ml inhalation): 330.61 ± 25.07 pg/mL
Cytokine Levels in Lung Tissue TNF-α (Human Coronavirus 229E; 18.75 mg/ml inhalation): 503.00 ± 56.50 pg/mL
Cytokine Levels in Lung Tissue IL-6 (Human Coronavirus 229E; 37.5 mg/ml inhalation): 98.23 ± 3.42 pg/mL
Cytokine Levels in Lung Tissue IL-10 (Human Coronavirus 229E; 37.5 mg/ml inhalation): 334.12 ± 25.59 pg/mL
Cytokine Levels in Lung Tissue TNF-α (Human Coronavirus 229E; 37.5 mg/ml inhalation): 513.28 ± 58.74 pg/mL
Cytokine Levels in Lung Tissue IL-6 (Human Coronavirus 229E; 75 mg/ml inhalation): 98.31 ± 2.78 pg/mL
Cytokine Levels in Lung Tissue IL-10 (Human Coronavirus 229E; 75 mg/ml inhalation): 341.12 ± 29.07 pg/mL
Cytokine Levels in Lung Tissue TNF-α (Human Coronavirus 229E; 75 mg/ml inhalation): 511.81 ± 51.82 pg/mL
